# Reference: US20260103466A1, “PROCESS FOR THE MANUFACTURE OF SALTS AND CRYSTALLINE FORMS OF 1-(8-BROMOPYRIDO[2,3-E][1,2,4]TRIAZOLO[4,3-A]PYRAZIN-4-YL)-NMETHYLAZETIDIN-3-AMINE AND NOVEL CRYSTALLINE FORMS” (JW PHARMACEUTICAL CORPORATION, priority 2022, published 2026)
# Columns and labels:
# [1] = Solubility in various solvents; type: physicochemical
# [2] = Stability towards hydrolysis and pH during processing in aqueous environment; type: physicochemical; settings: compared to the hydrogen sulfate salt; for Stability towards hydrolysis: processing in aqueous, elevated temperatures at least as high as 50° C.
# [3] = Solid form stability on drying and in water-containing environments; type: physicochemical; settings: for Stability during gentle drying: polymorphic forms of the methyl sulfate salt
# [4] = molecular target: histamine 4 receptor (Homo sapiens, UniProt Q9H3N8); settings: cited from earlier work
# Sequence of histamine 4 receptor (Q9H3N8 whole entry): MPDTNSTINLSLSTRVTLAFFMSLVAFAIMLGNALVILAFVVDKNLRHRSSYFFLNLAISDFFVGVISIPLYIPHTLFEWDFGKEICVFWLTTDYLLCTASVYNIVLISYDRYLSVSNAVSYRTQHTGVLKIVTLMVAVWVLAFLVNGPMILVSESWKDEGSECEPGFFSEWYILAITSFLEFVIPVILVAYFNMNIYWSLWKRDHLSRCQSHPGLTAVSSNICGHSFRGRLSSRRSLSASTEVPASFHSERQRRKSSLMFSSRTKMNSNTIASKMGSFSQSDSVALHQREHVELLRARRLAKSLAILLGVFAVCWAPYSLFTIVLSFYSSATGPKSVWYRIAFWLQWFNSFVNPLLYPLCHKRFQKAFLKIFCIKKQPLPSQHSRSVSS
# [5] = test system: inflammatory cells such as mast cells and eosinophils; settings: cited from earlier work
molecule,measurement,setting,value
"1-(8-bromopyrido[2,3-e][1,2,4]triazolo[4,3-a]pyrazin-4-yl)-N-methylazetidin-3-amine ethyl sulfate",Solubility,"[1]; solvent 1,3-dimethyl-2-imidazolidinone, ethyl sulfate form A",17000 µg/mL
same,Solubility,"[1]; solvent 1-propanol, ethyl sulfate form A",37 µg/mL
same,Solubility,"[1]; solvent 2-propanol, ethyl sulfate form A",4.7 µg/mL
same,Solubility,"[1]; solvent Acetone, ethyl sulfate form A",6.2 µg/mL
same,Solubility,"[1]; solvent Acetonitrile, ethyl sulfate form A",45 µg/mL
same,Solubility,"[1]; solvent Cyclohexane, ethyl sulfate form A",<3.5 µg/mL
same,Solubility,"[1]; solvent DCM, ethyl sulfate form A",<3.5 µg/mL
same,Solubility,"[1]; solvent DMF, ethyl sulfate form A",5900 µg/mL
same,Solubility,"[1]; solvent DMSO, ethyl sulfate form A",76000 µg/mL
same,Solubility,"[1]; solvent EtOAc, ethyl sulfate form A",<3.5 µg/mL
same,Solubility,"[1]; solvent EtOH, ethyl sulfate form A",120 µg/mL
same,Solubility,"[1]; solvent Isoamyl alcohol, ethyl sulfate form A",23 µg/mL
same,Solubility,"[1]; solvent MTBE, ethyl sulfate form A",<3.5 µg/mL
same,Solubility,"[1]; solvent MeOH, ethyl sulfate form A",1600 µg/mL
same,Solubility,"[1]; solvent Methyl ethyl ketone, ethyl sulfate form A",200 µg/mL
same,Solubility,"[1]; solvent Toluene, ethyl sulfate form A",<3.5 µg/mL
same,pH in aqueous environment,[2],more neutral
same,Stability towards hydrolysis,[2],much more stable
"1-(8-bromopyrido[2,3-e][1,2,4]triazolo[4,3-a]pyrazin-4-yl)-N-methylazetidin-3-amine methyl sulfate",Solubility (in words),[1]; in 1-propanol acetonitrile and ethanol,intermediate
same,Solubility (in words),[1]; in 1-propanol:H2O (1:5) and DMSO,very high
same,Solubility (in words),"[1]; in THF, EtOAC, Toluene, MTBE and methyl ethyl ketone",very low
same,Solubility (in words),[1]; in a number of solvents,relatively high
same,Solubility (in words),[1]; in isoamyl alcohol and 2-propanol,low
same,Solubility (in words),[1]; in methanol and DMF,high
same,Solubility,"[1]; solvent 1-propanol/H2O (1:5), solid form A + B",44000 µg/mL
same,Solubility,"[1]; solvent 1-propanol, solid form B",50 µg/mL
same,Solubility,"[1]; solvent 2-propanol, solid form A + B",16 µg/mL
same,Solubility,"[1]; solvent Acetone, solid form B",<3 µg/mL
same,Solubility,"[1]; solvent Acetonitrile, solid form B",55 µg/mL
same,Solubility,"[1]; solvent DMF, solid form B",8200 µg/mL
same,Solubility,"[1]; solvent DMSO, solid form A + C",>/=69000 μg/ml
same,Solubility,"[1]; solvent EtOAc, solid form B",<3 µg/mL
same,Solubility,"[1]; solvent EtOH, solid form B",110 µg/mL
same,Solubility,"[1]; solvent Isoamyl alcohol, solid form A + B",6.3 µg/mL
same,Solubility,"[1]; solvent MTBE, solid form A + B",<3 µg/mL
same,Solubility,"[1]; solvent MeOH, solid form B",1600 µg/mL
same,Solubility,"[1]; solvent Methyl ethyl ketone, solid form B",<3 µg/mL
same,Solubility,"[1]; solvent THF, solid form B",<3 µg/mL
same,Solubility,"[1]; solvent Toluene, solid form A + B",<3 µg/mL
same,pH in aqueous environment,[2],more neutral
same,Stability towards hydrolysis,[2],much more stable
"1-(8-bromopyrido[2,3-e][1,2,4]triazolo[4,3-a]pyrazin-4-yl)-N-methylazetidin-3-amine methyl sulfate monohydrate [form A]",Drying behaviour of crystal lattice,[3]; freeze dryer or vacuum oven at 60° C.,without collapsing the crystal lattice
same,Stability during gentle drying,[3],stable
"CNC1CN(c2nc3ncc(Br)cc3n3cnnc23)C1 [1-(8-bromopyrido[2,3-e][1,2,4]triazolo[4,3-a]pyrazin-4-yl)-N-methylazetidin-3-amine]",histamine 4 receptor inhibitory effect,[4],strong
same,effects against histamine induced infiltration of inflammatory cells,[5],suppressive effects
"CNC1CN(c2nc3ncc(Br)cc3n3cnnc23)C1.COS(=O)(=O)O [Form B, 1-(8-bromopyrido[2,3-e][1,2,4]triazolo[4,3-a]pyrazin-4-yl)-N-methylazetidin-3-amine methyl sulfate anhydrate]",Stability in water-containing environments,[3]; environments containing 60% water,stable
same,Stability during gentle drying,[3],stable
"CNC1CN(c2nc3ncc(Br)cc3n3cnnc23)C1.CS(=O)(=O)O [methane sulfonate salt, 1-(8-bromopyrido[2,3-e][1,2,4]triazolo[4,3-a]pyrazin-4-yl)-N-methylazetidin-3-amine methane sulfonate]",pH in aqueous environment,[2],more neutral
same,Stability towards hydrolysis,[2],much more stable
